Data published in patent publication US12458021B2, “Microbiocidal derivatives” (SYNGENTA CROP PROTECTION AG, priority 2019, dated 2025).

Key:
Alternaria solani = Alternaria solani / tomato / leaf disc (early blight); type: in vivo; conditions: foliar, tomato leaf disks cv. Baby, inoculated 2 days after application, assessed 5-7 days after application, read-out: control of Alternaria solani (percent disease control compared to untreated)
Procedure: Example B1: Alternaria solani/Tomato/Leaf Disc (Early Blight) Tomato leaf disks cv. Baby are placed on agar in multiwell plates (24-well format) and sprayed with the formulated test compound diluted in water. The leaf disks are inoculated with a spore suspension of the fungus 2 days after application. The inoculated leaf disks are incubated at 23° C./21° C. […] […]-185.

[1] = system: Glomerella lagenarium (Colletotrichum lagenarium); assay: Glomerella lagenarium (Colletotrichum lagenarium) / liquid culture (anthracnose); type: cell-based; conditions: Colletotrichum orbiculare, PDB potato dextrose broth, 24° C., 3-4 days after application, read-out: control of Glomerella lagenarium (inhibition of growth, photometric)
Method in brief: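 Conidia from cryogenic storage suspended in potato dextrose broth and added to DMSO compound solution in plates. Incubated at 24° C; growth inhibition read photometrically 3-4 days after application.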

[2] = system: Blumeria graminis f. sp. tritici (Erysiphe graminis f. sp. tritici); assay: Blumeria graminis f. sp. tritici / wheat / leaf disc preventative (powdery mildew on wheat); type: in vivo; conditions: foliar, wheat leaf segments cv. Kanzler, inoculated 1 day after application, assessed 6-8 days after application, read-out: control of Blumeria graminis f. sp. tritici (percent disease control compared to untreated)
From the text: Example B4: Blumeria graminis f. sp. tritici (Erysiphe graminis f. sp. tritici)/Wheat/Leaf Disc Preventative (Powdery Mildew on Wheat) Wheat leaf segments cv. Kanzler are placed on agar in a multiwell plate (24-well format) and sprayed with the formulated test compound diluted in water. The leaf disks are inoculated by shaking powdery mildew infected plants above the test plates 1 day after application. […] […]-192.

[3] = system: Phaeosphaeria nodorum (Septoria nodorum); assay: Phaeosphaeria nodorum (Septoria nodorum) / wheat / leaf disc preventative (glume blotch); type: in vivo; conditions: Parastagonospora nodorum, foliar, wheat leaf segments cv. Kanzler, inoculated 2 days after application, assessed 5-7 days after application, read-out: control of Phaeosphaeria nodorum (percent disease control compared to untreated)
Method in brief: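 Wheat cv. Kanzler leaf discs on agar were sprayed with formulated compound diluted in water and inoculated with spores 2 days later. Discs were kept at 20° C, 75% rh, 12 h light/dark; percent disease control versus untreated was scored 5-7 days after application.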

[4] = system: Monographella nivalis (Microdochium nivale); assay: Monographella nivalis (Microdochium nivale) / liquid culture (foot rot cereals); type: cell-based; conditions: PDB potato dextrose broth, 24° C., 4-5 days after application, read-out: control of Monographella nivalis (inhibition of growth, photometric)
Method in brief: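 Cryostored M. nivalis conidia mixed into potato dextrose broth and added to 96-well plates holding test compound in DMSO. Incubated at 24° C; growth inhibition read photometrically 4-5 days after application.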

[5] = system: Puccinia recondita f. sp. tritici; assay: Puccinia recondita f. sp. tritici / wheat / leaf disc curative (brown rust); type: in vivo; conditions: foliar, wheat leaf segments cv. Kanzler, compound applied 1 day after inoculation, assessed 6-8 days after application, read-out: control of Puccinia recondita f. sp. tritici, curative (percent disease control compared to untreated)
Procedure: Example B10: Puccinia recondita f. sp. tritici/Wheat/Leaf Disc Curative (Brown Rust) Wheat leaf segments cv. Kanzler are placed on agar in multiwell plates (24-well format). The leaf segments are inoculated with a spore suspension of the fungus. Plates are stored in darkness at 19° C. and 75% rh. The formulated test compound diluted in water is applied 1 day after inoculation. […] […]-185.

[6] = system: Puccinia recondita f. sp. tritici; assay: Puccinia recondita f. sp. tritici / wheat / leaf disc preventative (brown rust); type: in vivo; conditions: foliar, wheat leaf segments cv. Kanzler, inoculated 1 day after application, assessed 7-9 days after application, read-out: control of Puccinia recondita f. sp. tritici, preventative (percent disease control compared to untreated)
Method in brief: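 Wheat leaf segments (cv. Kanzler) on agar were sprayed with formulated compound, then inoculated with spores 1 day later. Segments were incubated at 19 °C, 75% rh with 12 h light/dark. Percent disease control versus untreated was scored 7–9 days after application.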

[7] = system: Magnaporthe grisea (Pyricularia oryzae); assay: whole plant or invertebrate; type: in vivo; conditions: foliar, read-out: control of Magnaporthe grisea (percent disease control compared to untreated)
Pyrenophora teres = Pyrenophora teres / barley / leaf disc preventative (net blotch); type: in vivo; conditions: foliar, barley leaf segments cv. Hasso, inoculated 2 days after application, assessed 5-7 days after application, read-out: control of Pyrenophora teres (disease control compared to untreated)
Method in brief: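 Barley cv. Hasso leaf discs on agar were sprayed with diluted formulated compound, then inoculated with spore suspension 2 days later. Incubation at 20 °C, 65% rh, 12 h light/dark; disease control versus untreated assessed 5-7 days after application.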

Sclerotinia sclerotiorum = Sclerotinia sclerotiorum / liquid culture (cottony rot); type: cell-based; conditions: PDB potato dextrose broth, mycelia fragments, 24° C., 3-4 days after application, read-out: control of Sclerotinia sclerotiorum (inhibition of growth, photometric)
Procedure: Example B14: Sclerotinia sclerotiorum/Liquid Culture (Cottony Rot) Mycelia fragments of a newly grown liquid culture of the fungus are directly mixed into nutrient broth (PDB potato dextrose broth). After placing a (DMSO) solution of test compound into a microtiter plate (96-well format) the nutrient broth containing the fungal material is added. The test plates are incubated at 24° C. and the inhibition of growth is determined photometrically 3-4 days after application.

[8] = system: Mycosphaerella graminicola (Septoria tritici); assay: Mycosphaerella graminicola (Septoria tritici) / liquid culture (Septoria blotch); type: cell-based; conditions: Zymoseptoria tritici, PDB potato dextrose broth, 24° C., 4-5 days after application, read-out: control of Mycosphaerella graminicola (inhibition of growth, photometric)
Method in brief: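 Conidia from cryogenic storage were mixed into potato dextrose broth and added to test compound in DMSO. Plates were incubated at 24° C, and growth inhibition was read photometrically 4-5 days after application.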

[9] = system: Botryotinia fuckeliana (Botrytis cinerea); assay: Botryotinia fuckeliana (Botrytis cinerea) / liquid culture (gray mould); type: cell-based; conditions: Vogels broth, 24° C., 3-4 days after application, read-out: control of Botryotinia fuckeliana (inhibition of growth, photometric)
Method in brief: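 Botrytis cinerea conidia in Vogels broth were added to compound supplied as DMSO solution. Plates were incubated at 24 °C, and growth inhibition was read photometrically 3-4 days after application.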

[10] = system: Mycosphaerella arachidis (Cercospora arachidicola); assay: Mycosphaerella arachidis (Cercospora arachidicola) / liquid culture (early leaf spot); type: cell-based; conditions: PDB potato dextrose broth, 24° C., 4-5 days after application, read-out: control of Mycosphaerella arachidis (inhibition of growth, photometric)
Method in brief: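 Conidia from cryogenic storage suspended in potato dextrose broth and added to compound in DMSO. Incubation at 24° C; growth inhibition read photometrically 4-5 days after application.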

Fusarium culmorum = assay: microbe, parasite or virus in culture; type: cell-based; conditions: read-out: control of Fusarium culmorum (inhibition of growth, photometric)

COc1ccc(Nc2cc(F)nc(F)c2)nc1C(=O)NC1CCC1(C)C (stereo not drawn) [Compound P-4, 6-[(2,6-difluoro-4-pyridyl)amino]-N-(2,2-dimethylcyclobutyl)-3-methoxy-pyridine-2-carboxamide]
≥ 80%: pest or weed control at 200 ppm (Alternaria solani) | inhibition at 20 ppm [1] | pest or weed control at 200 ppm [2] | pest or weed control at 200 ppm [3] | inhibition at 20 ppm [4] | pest or weed control at 200 ppm [5] | pest or weed control at 200 ppm [6] | pest or weed control at 200 ppm [7] | pest or weed control at 200 ppm (Pyrenophora teres) | inhibition at 20 ppm (Sclerotinia sclerotiorum) | inhibition at 20 ppm [8]

COc1ccc(Nc2cc(F)cc(F)c2)nc1C(=O)NC(C)(C)C [Compound P-93, N-tert-butyl-6-(3,5-difluoroanilino)-3-methoxy-pyridine-2-carboxamide]
≥ 80%: pest or weed control at 200 ppm (Alternaria solani) | inhibition at 20 ppm [9] | inhibition at 20 ppm [1] | pest or weed control at 200 ppm [2] | pest or weed control at 200 ppm [3] | inhibition at 20 ppm [4] | inhibition at 20 ppm [10] | pest or weed control at 200 ppm [5] | pest or weed control at 200 ppm [6] | pest or weed control at 200 ppm [7] | pest or weed control at 200 ppm (Pyrenophora teres) | inhibition at 20 ppm [8]

COc1ccc(Nc2cc(F)nc(F)c2)nc1C(=O)NC1(C)CCCC1 [Compound P-109, 6-[(2,6-difluoro-4-pyridyl)amino]-3-methoxy-N-(1-methylcyclopentyl)pyridine-2-carboxamide]
≥ 80%: pest or weed control at 200 ppm (Alternaria solani) | inhibition at 20 ppm [1] | pest or weed control at 200 ppm [2] | inhibition at 20 ppm [4] | pest or weed control at 200 ppm [5] | pest or weed control at 200 ppm [6] | pest or weed control at 200 ppm [7] | pest or weed control at 200 ppm (Pyrenophora teres) | inhibition at 20 ppm (Sclerotinia sclerotiorum) | inhibition at 20 ppm [8]

COc1ccc(Nc2cc(F)cc(F)c2)nc1C(=O)NC1(C)CCC1 [Compound P-118, 6-(3,5-difluoroanilino)-3-methoxy-N-(1-methylcyclobutyl)pyridine-2-carboxamide]
≥ 80%: pest or weed control at 200 ppm (Alternaria solani) | inhibition at 20 ppm [9] | inhibition at 20 ppm [1] | pest or weed control at 200 ppm [2] | pest or weed control at 200 ppm [3] | inhibition at 20 ppm [4] | inhibition at 20 ppm [10] | pest or weed control at 200 ppm [5] | pest or weed control at 200 ppm [6] | pest or weed control at 200 ppm [7] | pest or weed control at 200 ppm (Pyrenophora teres) | inhibition at 20 ppm [8]

COc1ccc(Nc2cccc(F)c2)nc1C(=O)NC(C)(C)C [Compound P-160, N-tert-butyl-6-(3-fluoroanilino)-3-methoxy-pyridine-2-carboxamide]
≥ 80%: pest or weed control at 200 ppm (Alternaria solani) | inhibition at 20 ppm [9] | inhibition at 20 ppm [1] | pest or weed control at 200 ppm [2] | pest or weed control at 200 ppm [3] | inhibition at 20 ppm [4] | inhibition at 20 ppm [10] | pest or weed control at 200 ppm [5] | pest or weed control at 200 ppm [6] | pest or weed control at 200 ppm [7] | pest or weed control at 200 ppm (Pyrenophora teres) | inhibition at 20 ppm (Sclerotinia sclerotiorum) | inhibition at 20 ppm [8]

COc1ccc(Nc2cc(F)c(F)c(F)c2)nc1C(=O)NC(C)(C)C [Compound P-162, N-tert-butyl-3-methoxy-6-(3,4,5-trifluoroanilino)pyridine-2-carboxamide]
≥ 80%: pest or weed control at 200 ppm (Alternaria solani) | inhibition at 20 ppm [9] | inhibition at 20 ppm [1] | pest or weed control at 200 ppm [2] | inhibition at 20 ppm [4] | inhibition at 20 ppm [10] | pest or weed control at 200 ppm [5] | pest or weed control at 200 ppm [6] | pest or weed control at 200 ppm [7] | pest or weed control at 200 ppm (Pyrenophora teres) | inhibition at 20 ppm (Sclerotinia sclerotiorum) | inhibition at 20 ppm [8]

COc1ccc(Nc2cc(F)cc(F)c2)nc1C(=O)NC(C)C(C)C (stereo not drawn) [Compound P-168, 6-(3,5-difluoroanilino)-N-(1,2-dimethylpropyl)-3-methoxy-pyridine-2-carboxamide]
≥ 80%: inhibition at 20 ppm [9] | inhibition at 20 ppm [1] | pest or weed control at 200 ppm [2] | inhibition at 20 ppm (Fusarium culmorum) | inhibition at 20 ppm [4] | inhibition at 20 ppm [10] | pest or weed control at 200 ppm [6] | pest or weed control at 200 ppm (Pyrenophora teres) | inhibition at 20 ppm [8]

COc1ccc(Nc2cc(F)cc(F)c2)nc1C(=O)NC1(C2CCC2)CCC1 [Compound P-176, N-(1-cyclobutylcyclobutyl)-6-(3,5-difluoroanilino)-3-methoxy-pyridine-2-carboxamide]
≥ 80%: pest or weed control at 200 ppm (Alternaria solani) | inhibition at 20 ppm [9] | inhibition at 20 ppm [1] | pest or weed control at 200 ppm [2] | inhibition at 20 ppm (Fusarium culmorum) | pest or weed control at 200 ppm [3] | inhibition at 20 ppm [4] | inhibition at 20 ppm [10] | pest or weed control at 200 ppm [6] | pest or weed control at 200 ppm (Pyrenophora teres) | inhibition at 20 ppm [8]
